{"source": "ChEMBL document CHEMBL1201862", "about": "“PubChem BioAssay data set” (2004)", "key": {"[1]": {"assay": "A cytotoxicity screen of small molecule inhibitors of the PhoP region in Salmonella typhi identified in the primary screen. [Related pubchem assays: 1850, 1864, 1985 ]", "format": "functional"}, "cells [2]": {"assay": "cells"}, "[3]": {"target": "T1, Oxysterols receptor LXR-beta (Homo sapiens, UniProt P55055)", "T1 sequence (P55055 whole entry)": "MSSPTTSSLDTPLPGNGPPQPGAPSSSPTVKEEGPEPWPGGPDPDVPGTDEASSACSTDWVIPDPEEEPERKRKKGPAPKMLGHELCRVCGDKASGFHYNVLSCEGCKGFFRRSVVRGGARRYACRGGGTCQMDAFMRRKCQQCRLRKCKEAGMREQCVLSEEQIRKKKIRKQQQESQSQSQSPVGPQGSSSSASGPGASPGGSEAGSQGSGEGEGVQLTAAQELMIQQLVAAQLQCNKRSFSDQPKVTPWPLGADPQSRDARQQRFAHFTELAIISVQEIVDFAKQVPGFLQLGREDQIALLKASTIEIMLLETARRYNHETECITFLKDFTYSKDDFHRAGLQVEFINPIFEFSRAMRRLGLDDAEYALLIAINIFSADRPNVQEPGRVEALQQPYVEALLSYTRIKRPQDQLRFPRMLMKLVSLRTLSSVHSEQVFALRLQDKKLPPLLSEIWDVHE", "format": "functional, cell-based"}, "Caspase-6": {"target": "Caspase-6 (Homo sapiens, UniProt P55212)", "sequence (P55212 24-179 limits assumed)": "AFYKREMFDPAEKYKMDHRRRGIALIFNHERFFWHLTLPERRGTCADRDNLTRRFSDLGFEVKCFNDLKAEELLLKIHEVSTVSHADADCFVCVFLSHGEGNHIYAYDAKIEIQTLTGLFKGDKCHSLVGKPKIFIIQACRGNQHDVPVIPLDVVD", "sequence (P55212 194-293 limits assumed)": "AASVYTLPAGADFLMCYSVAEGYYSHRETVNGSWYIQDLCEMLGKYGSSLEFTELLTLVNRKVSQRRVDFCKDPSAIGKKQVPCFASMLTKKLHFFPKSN", "assay": "inhibition of CASP6 peptide cleavage – biochemical, VEID-R110 fluorescence, cherry-pick, dose response (AID 720632)"}, "Orexin receptor type 2 [4]": {"target": "T2, Orexin receptor type 2 (Homo sapiens, UniProt O43614)", "T2 sequence (O43614 whole entry)": "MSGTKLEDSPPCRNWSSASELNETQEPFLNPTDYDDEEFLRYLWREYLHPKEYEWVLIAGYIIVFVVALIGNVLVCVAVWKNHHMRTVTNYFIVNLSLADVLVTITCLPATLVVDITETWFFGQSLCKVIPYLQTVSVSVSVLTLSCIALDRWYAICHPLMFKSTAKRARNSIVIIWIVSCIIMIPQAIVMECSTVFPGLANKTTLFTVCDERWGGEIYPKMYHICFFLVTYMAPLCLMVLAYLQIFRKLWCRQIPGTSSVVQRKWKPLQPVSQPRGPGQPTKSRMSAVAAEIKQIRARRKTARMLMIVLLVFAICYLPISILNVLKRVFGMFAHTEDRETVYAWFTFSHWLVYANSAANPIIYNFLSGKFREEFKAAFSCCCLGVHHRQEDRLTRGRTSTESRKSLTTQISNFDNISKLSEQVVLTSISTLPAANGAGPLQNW", "assay": "Counterscreen assay for antagonists of the orexin 1 receptor (OX1R; HCRTR1): Fluorescence-based cell-based dose response assay for antagonists of the orexin 2 receptor (OX2R; HCRTR2), run by assay provider.", "format": "functional"}, "[5]": {"assay": "(§1) Counterscreen for antagonists of the orexin 1 receptor (OX1R; HCRTR1): Fluorescence-based cell-based high throughput dose response assay to identify antagonists of the parental CHO cell line. [Related pubchem assays (depositor defined):AID434989, AID435008, AID463079, AID485270, AID492963, AID492964, AID492965, AID493232, AID504699, AID504701]", "format": "functional"}, "Orexin receptor type 2 [6]": {"target": "T2, Orexin receptor type 2", "assay": "Counterscreen assay for antagonists of the orexin 1 receptor (OX1R; HCRTR1): Homogeneous Time Resolved Fluorescence (HTRF)-based cell-based dose response assay for antagonists of the orexin 2 receptor (OX2R; HCRTR2), run by assay provider.", "format": "functional"}, "CHO-K1": {"test_system": "CHO-K1", "assay": "as §1, with “Homogeneous time resolved fluorescence (HTRF)-based” for “Fluorescence-based”, “cell-based” for “cell-based high throughput”, “CHO-K1” for “CHO”", "format": "functional", "settings": "Cricetulus griseus"}, "[7]": {"target": "T3, Orexin/Hypocretin receptor type 1 (Homo sapiens, UniProt O43613)", "T3 sequence (O43613 whole entry)": "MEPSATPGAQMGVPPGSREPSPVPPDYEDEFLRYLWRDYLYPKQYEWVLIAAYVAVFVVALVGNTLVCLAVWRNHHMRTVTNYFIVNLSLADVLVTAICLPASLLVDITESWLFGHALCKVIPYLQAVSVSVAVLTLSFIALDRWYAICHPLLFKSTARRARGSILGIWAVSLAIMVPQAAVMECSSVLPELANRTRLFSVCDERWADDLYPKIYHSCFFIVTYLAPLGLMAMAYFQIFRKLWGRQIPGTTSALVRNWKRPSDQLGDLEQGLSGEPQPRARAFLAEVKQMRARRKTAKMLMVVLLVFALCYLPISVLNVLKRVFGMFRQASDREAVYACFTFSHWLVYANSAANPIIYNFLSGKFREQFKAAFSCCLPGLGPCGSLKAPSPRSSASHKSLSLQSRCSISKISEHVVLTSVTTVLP", "assay": "Homogeneous Time Resolved Fluorescence (HTRF)-based cell-based high throughput dose response assay for antagonists of the orexin 1 receptor (OX1R; HCRTR1). [Related pubchem assays (depositor defined):AID434989, AID435008, AID463079, AID485270, AID492963, AID492964, AID492965, AID493232, AID504717, AID504718]", "format": "functional"}, "[8]": {"target": "T3, Orexin/Hypocretin receptor type 1", "assay": "Fluorescence-based cell-based high throughput dose response assay for antagonists of the orexin 1 receptor (OX1R; HCRTR1). [Related pubchem assays (depositor defined):AID434989, AID435008, AID463079, AID485270, AID492963, AID492964, AID492965, AID493232, AID504717, AID504718]", "format": "functional"}, "cells [9]": {"assay": "cells", "remark": "listed apart in the source"}, "[10]": {"assay": "NIH3T3 cell viability loss – ATP luminescence, mouse fibroblasts, counter-screen, dose response (AID 2010)", "format": "functional, cell-based"}, "[11]": {"assay": "Trypanosoma cruzi growth suppression in host cells – NIH3T3 host cells, beta-gal luminescence, confirmation (AID 2044)", "format": "functional, cell-based"}, "Kallikrein-7": {"target": "Kallikrein-7 (Homo sapiens, UniProt P49862)", "sequence (P49862 whole entry)": "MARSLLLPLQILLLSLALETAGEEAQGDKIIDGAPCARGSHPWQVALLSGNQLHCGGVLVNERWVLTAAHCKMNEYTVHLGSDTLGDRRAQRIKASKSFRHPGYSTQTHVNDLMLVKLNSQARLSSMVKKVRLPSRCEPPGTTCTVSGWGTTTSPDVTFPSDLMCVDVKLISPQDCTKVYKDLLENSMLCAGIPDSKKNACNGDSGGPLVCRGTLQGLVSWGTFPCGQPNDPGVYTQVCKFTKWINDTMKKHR", "assay": "Fluorescence Intensity-based biochemical primary high throughput dose response assay to identify activators of kallikrein-7 (K7) zymogen."}, "[12]": {"assay": "microbe, parasite or virus in culture", "format": "functional", "settings": "Mycobacterium tuberculosis"}, "[13]": {"assay": "M. tuberculosis growth inhibition, HTS (AID 449762)", "format": "functional"}, "Cytochrome P450 3A4": {"target": "Cytochrome P450 3A4 (Homo sapiens, UniProt P08684)", "sequence (P08684 whole entry)": "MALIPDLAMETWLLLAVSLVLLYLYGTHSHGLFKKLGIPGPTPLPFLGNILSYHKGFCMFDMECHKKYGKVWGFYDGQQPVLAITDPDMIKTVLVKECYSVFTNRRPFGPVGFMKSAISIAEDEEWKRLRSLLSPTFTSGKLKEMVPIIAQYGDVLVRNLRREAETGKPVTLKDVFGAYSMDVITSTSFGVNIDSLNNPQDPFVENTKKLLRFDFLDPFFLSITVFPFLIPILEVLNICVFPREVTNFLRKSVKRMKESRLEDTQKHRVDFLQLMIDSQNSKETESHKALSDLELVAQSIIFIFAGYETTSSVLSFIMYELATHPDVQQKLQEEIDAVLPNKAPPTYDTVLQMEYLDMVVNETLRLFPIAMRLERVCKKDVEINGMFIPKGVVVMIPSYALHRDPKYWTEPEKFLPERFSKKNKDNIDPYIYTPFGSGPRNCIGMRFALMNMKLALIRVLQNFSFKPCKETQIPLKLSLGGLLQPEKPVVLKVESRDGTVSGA", "settings": "Potency"}, "Prothrombin": {"target": "Prothrombin (Homo sapiens, UniProt P00734)", "assay": "Thrombin 1536 HTS Dose Response Confirmation. [Related pubchem assays: 1046 (Thrombin 1536 HTS; hits were confirmed in this assay)]", "format": "functional"}, "[14]": {"assay": "Luminescence-based dose response cell-based high throughput screening assay for cytotoxic compounds using the IEC-6 intestinal epithelial cell line. [Related pubchem assays: 1858 (Summary AID.), 1825 (Counterscreen.), 1907 (Confirmation screen.)]", "format": "functional"}, "[15]": {"assay": "HEK-293T cell viability reduction – luminescence, B-cell screen hits, cytotoxicity control for BCR NF-kB inhibitor project, dose response (AID 489021)", "format": "functional, cell-based"}}, "note": "The source made the active and inactive calls.", "data": [{"smiles": "Cc1cc(N=Nc2ccc(C)c(N=Nc3cc(C)c(N)cc3N)c2)c(N)cc1N", "values": [{"measurement": "EC50", "setting": "[1]", "value": "> 50 µM (active)"}, {"measurement": "EC50", "setting": "cells [2]", "value": "> 67.5 µM (inactive)"}, {"measurement": "EC50", "setting": "[3]", "value": "> 67.5 µM (inactive)"}]}, {"smiles": "CCOc1ccccc1NC(=O)Cc1cccs1", "values": [{"measurement": "AC50", "setting": "Caspase-6", "value": "16.7 µM (active)"}]}, {"smiles": "Nn1c(-c2cccs2)nc2sc3c(c2c1=O)CCCC3", "values": [{"measurement": "IC50", "setting": "Orexin receptor type 2 [4]", "value": "31.2 µM (inactive)"}, {"measurement": "EC50", "setting": "cells [2]", "value": "> 67.5 µM (inactive)"}, {"measurement": "IC50", "setting": "[5]", "value": "> 49.7 µM (inactive)"}, {"measurement": "IC50", "setting": "Orexin receptor type 2 [6]", "value": "> 50 µM (inactive)"}, {"measurement": "IC50", "setting": "CHO-K1", "value": "> 66.2 µM (inactive)"}, {"measurement": "EC50", "setting": "[3]", "value": "> 67.5 µM (inactive)"}, {"measurement": "IC50", "setting": "[7]", "value": "2.98 µM (active)"}, {"measurement": "IC50", "setting": "[8]", "value": "18.1 µM (inactive)"}]}, {"smiles": "CN(CC1CCCN(CCc2cccc(C(F)(F)F)c2)C1)C(=O)c1ccco1", "note": "(stereo unspecified)", "values": [{"measurement": "EC50", "setting": "cells [9]", "value": "0.587 µM (active)"}, {"measurement": "EC50", "setting": "[10]", "value": "> 60 µM (not active)"}, {"measurement": "EC50", "setting": "[11]", "value": "< 0.1 µM (active)"}]}, {"smiles": "CC(=O)Nc1cc2c3c(cccc3c1)-c1ccccc1-2", "values": [{"measurement": "EC50", "setting": "Kallikrein-7", "value": "8.84 µM (active)"}]}, {"smiles": "O=C(c1cc([N+](=O)[O-])cc([N+](=O)[O-])c1)N1CCCc2ccccc21", "values": [{"measurement": "EC50", "setting": "cells [9]", "value": "0.203 µM (active)"}, {"measurement": "EC50", "setting": "[10]", "value": "> 60 µM (not active)"}, {"measurement": "EC50", "setting": "[11]", "value": "< 0.1 µM (active)"}]}, {"smiles": "COC(=O)c1cccc(C#CC(NP(=O)(c2ccccc2)c2ccccc2)c2ccccc2)c1", "note": "(stereo unspecified)", "values": [{"measurement": "CC50", "setting": "[12]", "value": "> 40 µM (active)"}, {"measurement": "IC50", "setting": "[13]", "value": "> 100 µM (active)"}, {"measurement": "AC50", "setting": "Cytochrome P450 3A4", "value": "12.6 µM (inconclusive)"}]}, {"smiles": "COCCNC(=O)/C(C#N)=C/c1c(N2CCN(c3ccc(OC)cc3)CC2)nc2c(C)cccn2c1=O", "values": [{"measurement": "EC50", "setting": "Kallikrein-7", "value": "> 69.5 µM (inactive)"}]}, {"smiles": "CCC(=O)n1nc(-c2ccc(Cl)cc2)nc1NCc1ccccc1", "values": [{"measurement": "IC50", "setting": "Prothrombin", "value": "1.75 µM (active)"}]}, {"smiles": "Cc1[nH]c2ccccc2c1/C=N/Nc1nc(Nc2ccc(F)cc2)nc(N2CCOCC2)n1", "values": [{"measurement": "IC50", "setting": "[14]", "value": "1.09 µM (active)"}, {"measurement": "IC50", "setting": "[15]", "value": "51.2 µM (inactive)"}]}]}
